Reference: patent publication US4980349A, “Sulphonamides derived from diarylmethanes, the processes for preparing them and pharmaceutical compositions containing them” (SANOFI, priority 1986, dated 1990)
Like-named read-outs stand apart in the source and are kept apart here.

Columns and labels:
[1] = tested on: rat hind foot kaolin-induced oedema; experiment: Kaolin-induced arthritis test, first experiment (decrease in inflammation, foot volume); type: in vivo; settings: 1 h before kaolin, Table IX, read-out: percentage decrease in the inflammation; for change in vivo at 25 mg/kg: 25 mg/kg oral; for change in vivo at 50 mg/kg: 50 mg/kg oral; for change in vivo at 100 mg/kg: 100 mg/kg oral
Description: The […] of 0.05 ml of a sterile 10% strength suspension of kaolin into the metatarsal flexor sheath of the hind foot of a rat initially induces an oedematous reaction. An inflammatory arthritis then forms.
The early oedematous reaction appears from the first hour, and reaches its maximum between the fourth hour and the sixth hour. This is the manifestation of interest. The assessment of the volume of the foot enables the action of substances on the oedematous reaction to be studied. The measurements are carried out using a Giono and Chevilard plethysmometer.
The test products are administered orally (stomach tube) one hour before the injection of the kaolin.
The results are expressed as a percentage decrease in the inflammation in the treated animals compared with a control series of animals.
The batches are of 10 animals per dose and 10 control animals.
The figures shown represent the mean of 10 animals.

[2] = tested on: rat hind foot carragheenin-induced oedema; experiment: Carragheenin-induced oedema test; type: in vivo; settings: 3 h, first experiment, Table X, read-out: percentage inhibition of the inflammation; for change in vivo at 25 mg/kg: 25 mg/kg oral; for change in vivo at 50 mg/kg: 50 mg/kg oral; for change in vivo at 100 mg/kg: 100 mg/kg oral
Description: In this test, 10 rats are used per test compound of the invention. Control batches of 10 rats also receive either the comparative compound (ketoprofen) or exclusively an NaCl solution.
The compounds of the invention are administered orally (stomach tube) one hour before the injection of carragheenin.
The carragheenin is suspended at a concentration of 1% in a 0.9% isotonic sodium chloride solution. The volume injected into the rat's foot is 0.20 ml.
The volume of the foot is measured before the injection and 3 hours later. The antagonistic effect of the products towards carragheenin is reflected in the inhibition of the volume of the oedema compared with control rats. The latter receive only isotonic NaCl solution under identical conditions.

[3] = tested on: foreign-body (sponge) granuloma in rats; experiment: Experimental granuloma induced by foreign body, histological study; type: in vivo, Wistar rats; settings: 8 days, Table XI
Description: This test consists in studying the subacute cellular phase which is developed in the 8 days which follow the implantation of a foreign body, a sponge of non-resorbable plastic, in the dorsal subcutaneous connective tissue in rats.
The granulomas formed are removed 8 days after the implantation; a histological study is carried out after fixing the tissue and staining sections with hematein/ eosin. The observation is more especially concerned with the cell population of the primary phase of the formation of the granulation tissue: the reticulohistocytic cells, lymphocytes and more especially the macrophages.
The animals used are Wistar rats weighing 120-140 g and of the same origin, maintained under the same conditions of housing throughout the treatment (8 days).
The compounds of the invention are administered orally, in a gum suspension, in the morning in a fasted state, using an oesophageal tube.
After 8 days of treatment, the rats are sacrificed by decapitation and the granulomas removed and prepared for the purpose of histological examination.
The experiment conditions are as follows:
The animals are distributed in batches of 10;
Each test product is administered at 2 doses, of 50 and 100 mg, respectively, to 2 batches of 10 animals;
Ketoprofen is used by way of reference product at the same 2 doses and under the same conditions; and
A batch of 10 control animals receives no treatment.
In this experiment, on the one hand a histological study of the granulomas is performed by sampling on day 8 (results recorded in Table XIa), and on the other hand a study of the weight of the granulomas was performed 10 days after the implantation (results recorded in Table XIb).

[4] = tested on: pain threshold of brewer's yeast inflamed rat hind foot; experiment: Randall and Sellitto's test (analgesic activity); type: in vivo
Description: Inflammation increases the sensitivity to pain, in particular to pressure, and analgesics raise the threshold of the sensitivity.
The inflammation is obtained by injecting 0.1 ml of a 20% strength aqueous suspension of brewer's yeast under the plantar aponeurosis of one of the hind feet. […] The pain threshold is assessed in terms of the force necessary and sufficient to initiate a characteristic reaction of withdrawing the foot.
The sensitivity to pain of the inflamed foot reaches a plateau 4 hours after the injection of the brewer's yeast, and then remains stable until the 6th hour. The pain threshold of the inflamed foot in control rats weighing 140 g is reached for pressures of 50 to 60 g, whereas it is around 160 g for the intact foot.
The action of the substance administered orally to series of 10 rats is expressed in terms of the percentage increase in the mean pain threshold, compared with that measured in the rats of a control series of 10 animals which have not received a compound of the invention.
The test products are administered orally (stomach tube) one hour before the injection of brewer's yeast.
The comparative compound used is ketoprofen.

[5] = tested on: biosynthesis of leukotrienes B4 (LTB4), human polymorphonuclear leukocytes; experiment: Biosynthesis of LTB4, isomers and oxidized metabolites in human polymorphonuclear leukocytes; type: cell-based; settings: Leukocyte, first experiment
Description: Polymorphonuclear leukocytes are isolated from human blood and used during the 6 hours following the withdrawal. The viability of the cells is checked by trypan blue exclusion.
5×10^6 cells are incubated for 10 minutes at 37° C. in the presence of the test product dissolved in DMSO, and are stimulated with ionophore A 23187 (Galbiochem, 10 μM) in PBS buffer at pH 7.4, Ca^2+ and Mg^2+ =1 μM.
100 ng of prostaglandin B2 (PGB2), dissolved in methanol, are added at the end of the reaction to act as an internal standard.
On centrifugation, the culture supernatant is withdrawn. The latter is retrieved under argon and stored at -80° C. until analysed by HPLC.
This analysis is carried out by injecting 250 μl onto a 5 μm ODS ultrasphere column (Beckmann), with a gradient of acetonitrile (20-80%) in water, at pH 7.4.
The amounts of the different products which absorb at 269 nm, i.e. leukotrienes B4 (LTB4), isomers of LTB4 and oxidized metabolites of LTB4, are estimated by comparison with the internal standard.
The test product is used at a concentration of 40 μM.
They are expressed either as a percentage inhibition, or as a percentage increase in the production of LTB4, isomers of LTB4 and oxidized metabolites of LTB4 (designated by +).
The experimental model is the same as that described in Section 2.1. Other products are tested by comparison with the compound of the invention no. 1574, used as a control.

[6] = both doses (50 and 100 mg/kg) oral
[7] = 25 mg/kg oral, first experiment, Table XII, read-out: percentage increase in the mean pain threshold
[8] = 50 mg/kg oral, first experiment, Table XII, read-out: percentage increase in the mean pain threshold
[9] = 100 mg/kg oral, first experiment, Table XII, read-out: percentage increase in the mean pain threshold
[10] = read-out: Isomers of LTB4: percentage inhibition (+ : percentage increase in the production)
[11] = read-out: LTB4: percentage inhibition (+ : percentage increase in the production)
[12] = read-out: Oxidized metabolites of LTB4: percentage inhibition (+ : percentage increase in the production)

SMILES	change in vivo at 25 mg/kg [1] [%]	change in vivo at 50 mg/kg [1] [%]	change in vivo at 100 mg/kg [1] [%]	histological study of the granuloma [3, 6]	change in vivo at 25 mg/kg [2] [%]	change in vivo at 50 mg/kg [2] [%]	change in vivo at 100 mg/kg [2] [%]	change in vivo at 25 mg/kg [4, 7] [%]	change in vivo at 50 mg/kg [4, 8] [%]	change in vivo at 100 mg/kg [4, 9] [%]	inhibition at 40 µM [5, 10] [%]	inhibition at 40 µM [5, 11] [%]	inhibition at 40 µM [5, 12] [%]	also measured
CC(C(=O)O)c1cccc(C(=O)c2ccccc2)c1 (stereo not shown) [Ketoprofen, ketoprofen, reference compound]	-30	-51	-73	very substantial decrease	–	–	–	–	–	–	–	–	–	change in vivo at 25 mg/kg ([2]; po): -25%; change in vivo at 50 mg/kg ([2]; po): -45%; change in vivo at 100 mg/kg ([2]; po): -65%; change in vivo at 25 mg/kg ([4]; po, read-out: percentage increase in the mean pain threshold, 25 mg/kg oral, first experiment, Table XII): 22%; change in vivo at 25 mg/kg ([4]; po, read-out: percentage increase in the mean pain threshold, 25 mg/kg oral, second experiment, Table XIIa): 50%; change in vivo at 50 mg/kg ([4]; po, read-out: percentage increase in the mean pain threshold, 50 mg/kg oral, first experiment, Table XII): 55%; change in vivo at 50 mg/kg ([4]; po, read-out: percentage increase in the mean pain threshold, 50 mg/kg oral, second experiment, Table XIIa): 55%; change in vivo at 100 mg/kg ([4]; po, read-out: percentage increase in the mean pain threshold, 100 mg/kg oral, first experiment, Table XII): 78%; change in vivo at 100 mg/kg ([4]; po, read-out: percentage increase in the mean pain threshold, 100 mg/kg oral, second experiment, Table XIIa): 58%
O=C(O)CCCCCCCCCCNS(=O)(=O)c1ccccc1C(=O)c1ccccc1 [Compound 1682]	-35	-35	-40	–	-33	-42	-45	12	15	20	30	30	40	–
O=C(c1ccc(Cl)cc1)c1ccccc1S(=O)(=O)NCCCN1CCOCC1 [Compound 1410]	-18	-32	-57	inflammatory reaction is attenuated	-15	-25	-48	19	37	58	–	–	–	–
O=C(O)CCCCCCCCCCNS(=O)(=O)c1cccc(C(=O)c2cc(S(=O)(=O)NCCCCCCCCCCC(=O)O)ccc2Cl)c1 [Compound 1688]	-25	-28	-48	–	-25	-32	-50	25	32	50	-35	35	20	–
O=C(O)CCCCCNS(=O)(=O)c1ccc(Cl)cc1C(=O)c1ccccc1Cl [Compound 1570]	-10	-25	-52	–	-20	-29	-40	15	25	53	–	–	–	histological study of the granuloma ([3]; 50 mg/kg oral): anti-inflammatory activity is exhibited; histological study of the granuloma ([3]; 100 mg/kg oral): distinct
